Results published in paper PMC6100724, “Proteome‐wide analysis of phospho‐regulated PDZ domain interactions” (Molecular Systems Biology, 2018).
Square brackets hold non-standard residues; d marks the D form. Peptide text beside a SMILES is read from it. * marks the point of attachment. FITC = O=C1OC2(c3ccc(O)cc3Oc3cc(O)ccc32)c2ccc(NC(=S)*)cc21; pS = N[C@@H](COP(=O)(O)O)C(=O)O

Experiments:
Scribble PDZ3 = assay: Phosphomimetic ProP-PD selection with NGS; type: binding, human; conditions: mean over selections 1-3; bait Scribble PDZ3
Outline: (§1)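 Phosphomimetic peptide phage library panned 4 rounds; GST pre-selection; bind 2 h/8°C; wash PBS-Tween. Score = read fraction per set.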

DLG1 PDZ1 = assay: Phosphomimetic ProP-PD selection with NGS; type: binding, human; conditions: mean of selections 1-3, bait DLG1 PDZ1; for Mean fraction #NGS counts mimetic peptide / total count selection: phosphomimetic peptide; for Mean fraction #NGS counts wt peptide / total counts selection: wild type peptide
Outline: as §1

DLG1 PDZ3 = assay: Phosphomimetic ProP-PD selection with NGS; type: binding, human; conditions: mean of selections 1-3; bait DLG1 PDZ3
Outline: as §1

Scribble PDZ2 = assay: Phosphomimetic ProP-PD selection with NGS; type: binding, human; conditions: bait Scribble PDZ2; mean of selections 1 and 2 (selection 3 empty)
Outline: as §1

DLG1 PDZ2 [1] = biological target: T1, DLG1 PDZ2 (Homo sapiens, UniProt Q12959); assay: Phosphomimetic ProP-PD selection with NGS; type: binding; conditions: mean of selections 1-3, bait DLG1 PDZ2
T1 construct: human DLG1 PDZ2 aa 311–407 in a modified pRSET vector 40; made in house; host or cells: E. coli BL21 Gold (DE3)
Outline: as §1

Scribble PDZ1 [2] = biological target: T2, Scribble PDZ1 (Homo sapiens, UniProt Q14160); assay: Phosphomimetic ProP-PD selection with NGS; type: binding; conditions: bait Scribble PDZ1; mean of selections 1-3
T2 construct: human Scribble PDZ1 aa 719–829 in; made in house; host or cells: E. coli BL21 Gold (DE3)
Outline: as §1

Scribble PDZ1 [3] = biological target: T2, Scribble PDZ1; assay: ITC titration, wild-type Scribble PDZ1; type: binding; conditions: unlabeled 9-mer peptides, 20 mM HEPES pH 7.4, 25°C, 50–100 μM protein in cell, 0.64–3 mM peptide in syringe, single-site fit, mean ± SD
Text: (§2) Glutathione transferase (GST)‐tagged PDZ domains and GST for phage display selections were expressed and purified as described previously (Tonikian et al, 2008; Ivarsson et al, 2014). Protein expression for MST, ITC, and NMR experiments was as follows: Plasmids encoding His‐tagged proteins (human Scribble PDZ1 aa 719–829 in pETM‐11, human DLG1 PDZ2 aa 311–407 in a modified pRSET vector 40, or human Shank1 PDZ aa 652–761 in pETM‐33) were transformed into E. coli BL21 Gold (DE3; Agilent), and the proteins were expressed in 2YT media supplemented with appropriate antibiotic (70 or 100 μg/ml carbenicillin). Protein expression was induced upon reaching an OD600 of 0.8 by adding 1 mM isopropyl β‐D‐1‐thiogalactopyranoside (IPTG) final concentration and allowed for 4 h at 30°C.
Scribble PDZ1 for NMR experiments was expressed in M9 salt enriched with 13C D‐glucose and 15N ammonium chloride. Bacteria were harvested by centrifugation at 10,000 × g for 20 min at 4°C. The pellets were resuspended in PBS supplemented with 5 mM CaCl2, 10 μg/ml DNaseI, and 1 mg/ml lysozyme and protease inhibitor (cOmplete Mini EDTA‐free; Sigma‐Aldrich) and incubated for 1 h at 4°C. The lysates were subjected to sonication in 1‐ to 3‐s pulses for 20 pulses. […]
Peptides and proteins were dialyzed in the same beaker in 20 mM HEPES, pH 7.4. […] The results were analyzed using Origin 7 (OriginLab Corporation). […]

DLG1 PDZ2 [4] = biological target: T1, DLG1 PDZ2; assay: MST affinity measurement, FITC-labeled peptides vs DLG1 PDZ2; type: binding; conditions: FITC-labeled peptide fixed at 25–50 nM, titrated with DLG1 PDZ2 (aa 311–407), 50 mM Tris–HCl pH 7.4, 0.1% Tween‐20, thermophoresis and T Jump signal, mean ± SD, n = 3, read-out: KD values, DLG1 PDZ2 (table row head: DLG PDZ1), MST
Text: as §2
Scribble PDZ1 for NMR experiments was expressed in M9 salt enriched with 13C D‐glucose and 15N ammonium chloride. Bacteria were harvested by centrifugation at 10,000 × g for 20 min at 4°C. The pellets were resuspended in PBS supplemented with 5 mM CaCl2, 10 μg/ml DNaseI, and 1 mg/ml lysozyme and protease inhibitor (cOmplete Mini EDTA‐free; Sigma‐Aldrich) and incubated for 1 h at 4°C. The lysates were subjected to sonication in 1‐ to 3‐s pulses for 20 pulses. The lysate was cleared by centrifugation at 20,000 × g for 1 h. […]

T1 sequence (Q12959 311-407): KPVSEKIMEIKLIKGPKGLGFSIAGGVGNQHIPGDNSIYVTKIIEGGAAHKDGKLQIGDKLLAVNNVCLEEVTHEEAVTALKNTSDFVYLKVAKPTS
T2 sequence (Q14160 719-829): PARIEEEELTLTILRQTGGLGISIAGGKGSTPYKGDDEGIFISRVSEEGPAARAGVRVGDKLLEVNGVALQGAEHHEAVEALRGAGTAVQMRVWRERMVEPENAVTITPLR

Row | Molecule | Mean fraction #NGS counts mimetic peptide / total count selection (Scribble PDZ3) | Mean fraction #NGS counts mimetic peptide / total count selection (DLG1 PDZ1) | Mean fraction #NGS counts mimetic peptide / total count selection (DLG1 PDZ3) | Mean fraction #NGS counts mimetic peptide / total count selection (DLG1 PDZ2 [1]) | Mean fraction #NGS counts mimetic peptide / total count selection (Scribble PDZ1 [2]) | Mean fraction #NGS counts wt peptide / total counts selection (Scribble PDZ3) | Mean fraction #NGS counts wt peptide / total counts selection (DLG1 PDZ1) | Mean fraction #NGS counts wt peptide / total counts selection (DLG1 PDZ3) | Mean fraction #NGS counts wt peptide / total counts selection (Scribble PDZ1 [2]) | also measured
1 | HSIKQETAV | 0.0001468 | 0.0009534 | 0.0006363 | 0.01768 | 6.299e-5 |  |  |  |  | Mean fraction #NGS counts mimetic peptide / total count selection (Scribble PDZ2): 0.001519
2 | VWLRKEERV | 0 | 0 | 9.275e-5 | 3.584e-5 | 0 |  |  |  |  | Mean fraction #NGS counts mimetic peptide / total count selection (Scribble PDZ2): 0
3 | TIKLKTSFF |  |  |  |  |  | 4.802e-5 | 0 | 3.092e-5 |  | Mean fraction #NGS counts wt peptide / total counts selection (DLG1 PDZ2 [1]; wild type peptide): 4.36e-5
4 | VWLRKETRV |  |  |  |  |  | 0.009414 | 0.4163 | 0.8949 | 0.0001002 | Mean fraction #NGS counts wt peptide / total counts selection (Scribble PDZ2): 0.008925; Mean fraction #NGS counts wt peptide / total counts selection (DLG1 PDZ2 [1]): 0.5055
5 | LPKIKEETV | 0 | 3.0718e-6 | 0 | 0 | 0 |  |  |  |  | 
6 | ARVSKEpTPL [pMAPK12, p‐2 phosphorylated MAPK12 peptide] |  |  |  |  |  |  |  |  |  | KD values, Scribble PDZ1, ITC (Scribble PDZ1 [3]; n = 3): no binding; KD values, Scribble PDZ1, ITC (Scribble PDZ1 [3]; n = 3, listed as phosphorylated MAPK12): no interaction was observed
7 | CC[C@H](C)[C@H](NC(=O)[C@H](Cc1ccccc1)NC(=O)[C@H](CO)NC(=O)[C@H](CCCNC(=N)N)NC(=O)[C@H](CCCCN)NC(=S)Nc1ccc2c(c1)C(=O)OC21c2ccc(O)cc2Oc2cc(O)ccc21)C(=O)N[C@@H](CCC(=O)O)C(=O)N[C@@H](CO)C(=O)N[C@@H](CC(N)=O)C(=O)N[C@H](C(=O)O)C(C)C [TANC1] ({FITC}-KRSFIESNV-OH) |  |  |  |  |  |  |  |  |  | Kd (DLG1 PDZ2 [4]): 2.7 ± 0.1 µM
8 | CC[C@H](C)[C@H](NC(=O)[C@H](Cc1ccccc1)NC(=O)[C@H](COP(=O)(O)O)NC(=O)[C@H](CCCNC(=N)N)NC(=O)[C@H](CCCCN)NC(=S)Nc1ccc2c(c1)C(=O)OC21c2ccc(O)cc2Oc2cc(O)ccc21)C(=O)N[C@@H](CCC(=O)O)C(=O)N[C@@H](CO)C(=O)N[C@@H](CC(N)=O)C(=O)N[C@H](C(=O)O)C(C)C [pTANC1, FITC‐KRpSFIESNV] ({FITC}-KR[pS]FIESNV-OH) |  |  |  |  |  |  |  |  |  | Kd (DLG1 PDZ2 [4]): 6.1 ± 0.7 µM
9 | HSIKQSTAV |  |  |  | 0 |  | 5.205e-5 | 0.0004538 | 0 | 4.38e-5 | Mean fraction #NGS counts wt peptide / total counts selection (Scribble PDZ2): 0.0003798; Mean fraction #NGS counts wt peptide / total counts selection (DLG1 PDZ2 [1]; wild type peptide): 5.408e-5
10 | LPKIKETTV |  |  |  |  |  | 0.004275 | 0.004479 | 0.008422 | 0.0005451 | Mean fraction #NGS counts wt peptide / total counts selection (DLG1 PDZ2 [1]): 0.04339
